#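 Interpolation was linear, between the two tested concentrations surrounding the appropriate level; five concentrations were tested over 48 hours in 96-well plates. GI50: concentration for 50% inhibition of growth. TGI denotes the concentration required for complete inhibition of growth.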
# Assays:
# Assay in all cases: NCI tumour cell line growth inhibition, 48 h
# SK-MEL-2 melanoma = tested on: SK-MEL-2 melanoma
# HT29 colon = tested on: HT29 colon
# MDA-MB-435 = tested on: MDA-MB-435
# HCT-15 colon = tested on: HCT-15 colon
# UO-31 renal = tested on: UO-31 renal
# SN12C renal = tested on: SN12C renal
# HL-60(TB) leukemia = tested on: HL-60(TB) leukemia
# 786-0 renal = tested on: 786-0 renal
# SNB-75 CNS = tested on: SNB-75 CNS
# HOP-92 NSCLC = tested on: HOP-92 NSCLC
# OVCAR-5 ovarian = tested on: OVCAR-5 ovarian
# HCT-116 colon = tested on: HCT-116 colon
# U251 CNS = tested on: U251 CNS
# COLO 205 colon = tested on: COLO 205 colon
# NCI-H23 lung = tested on: NCI-H23 lung
# HOP-62 NSCLC = tested on: HOP-62 NSCLC
# PC-3 prostate = tested on: PC-3 prostate
# CAKI-1 renal = tested on: CAKI-1 renal
# SF-295 CNS = tested on: SF-295 CNS
# BT-549 breast = tested on: BT-549 breast
# K-562 leukemia = tested on: K-562 leukemia
# HS 578T breast = tested on: HS 578T breast
# UACC-257 melanoma = tested on: UACC-257 melanoma
# SNB-19 CNS = tested on: SNB-19 CNS
# SF-268 CNS = tested on: SF-268 CNS
# KM12 colon = tested on: KM12 colon
# SK-MEL-28 melanoma = tested on: SK-MEL-28 melanoma
# NCI-H226 lung = tested on: NCI-H226 lung
# HCC-2998 colon = tested on: HCC-2998 colon
smiles,measurement,setting,value
O=C(Nc1cccc(-n2cc(-c3ccncc3)c(-c3ccc(Cl)c(O)c3)n2)c1)Nc1ccc(Cl)c(C(F)(F)F)c1,GI50,SK-MEL-2 melanoma,784 nM
same,TGI,SK-MEL-2 melanoma,1680 nM
same,GI50,HT29 colon,2050 nM
same,TGI,HT29 colon,7110 nM
same,GI50,MDA-MB-435,640 nM
same,TGI,MDA-MB-435,1660 nM
same,GI50,HCT-15 colon,949 nM
same,TGI,HCT-15 colon,10300 nM
same,GI50,UO-31 renal,738 nM
same,TGI,UO-31 renal,2590 nM
same,GI50,SN12C renal,1050 nM
same,TGI,SN12C renal,10300 nM
same,GI50,HL-60(TB) leukemia,1230 nM
same,TGI,HL-60(TB) leukemia,8990 nM
same,GI50,786-0 renal,1020 nM
same,TGI,786-0 renal,8250 nM
same,GI50,SNB-75 CNS,514 nM
same,TGI,SNB-75 CNS,5050 nM
same,GI50,HOP-92 NSCLC,310 nM
same,TGI,HOP-92 NSCLC,1290 nM
same,GI50,OVCAR-5 ovarian,1710 nM
same,TGI,OVCAR-5 ovarian,12300 nM
same,GI50,HCT-116 colon,938 nM
same,TGI,HCT-116 colon,3630 nM
same,GI50,U251 CNS,542 nM
same,TGI,U251 CNS,1270 nM
same,GI50,COLO 205 colon,2230 nM
same,TGI,COLO 205 colon,6730 nM
same,GI50,NCI-H23 lung,1040 nM
same,TGI,NCI-H23 lung,4000 nM
same,GI50,HOP-62 NSCLC,1040 nM
same,TGI,HOP-62 NSCLC,4750 nM
same,GI50,PC-3 prostate,533 nM
same,TGI,PC-3 prostate,2110 nM
same,GI50,CAKI-1 renal,726 nM
same,TGI,CAKI-1 renal,2300 nM
same,GI50,SF-295 CNS,656 nM
same,TGI,SF-295 CNS,1710 nM
same,GI50,BT-549 breast,1160 nM
same,TGI,BT-549 breast,5360 nM
same,GI50,K-562 leukemia,768 nM
same,TGI,K-562 leukemia,9360 nM
same,GI50,HS 578T breast,1050 nM
same,TGI,HS 578T breast,15700 nM
same,GI50,UACC-257 melanoma,705 nM
same,TGI,UACC-257 melanoma,1880 nM
same,GI50,SNB-19 CNS,1170 nM
same,TGI,SNB-19 CNS,5310 nM
same,GI50,SF-268 CNS,1110 nM
same,TGI,SF-268 CNS,6650 nM
same,GI50,KM12 colon,910 nM
same,TGI,KM12 colon,3430 nM
same,GI50,SK-MEL-28 melanoma,928 nM
same,TGI,SK-MEL-28 melanoma,3210 nM
same,GI50,NCI-H226 lung,1330 nM
same,TGI,NCI-H226 lung,14600 nM
same,GI50,HCC-2998 colon,1390 nM

# From PubChem BioAssay (NCI)
